Laboratory results reported in US20190119348A1, “PARATHYROID HORMONE RECEPTOR 1 ANTAGONIST AND INVERSE AGONIST POLYPEPTIDES AND METHODS OF THEIR USE” (The General Hospital Corporation, priority 2016, published 2019).
Like-named read-outs stand apart in the source and are kept apart here. Where a SMILES comes first, the peptide text is derived from it. [ ]: non-standard residue; d: D form.

Key:
PTHR1 (hPTHR1) = molecular target: T1, PTHR1 (hPTHR1) (Homo sapiens, UniProt Q03431); assay: Radioligand competition binding in GP-2.3 cells; conditions: for IC50: means of four experiments
T1 construct: expressed in transfected cells; host or cells: GP-2.3 (HEK-293 stably transfected with hPTHR1 and GloSensor)
T1 sequence (Q03431 27-593): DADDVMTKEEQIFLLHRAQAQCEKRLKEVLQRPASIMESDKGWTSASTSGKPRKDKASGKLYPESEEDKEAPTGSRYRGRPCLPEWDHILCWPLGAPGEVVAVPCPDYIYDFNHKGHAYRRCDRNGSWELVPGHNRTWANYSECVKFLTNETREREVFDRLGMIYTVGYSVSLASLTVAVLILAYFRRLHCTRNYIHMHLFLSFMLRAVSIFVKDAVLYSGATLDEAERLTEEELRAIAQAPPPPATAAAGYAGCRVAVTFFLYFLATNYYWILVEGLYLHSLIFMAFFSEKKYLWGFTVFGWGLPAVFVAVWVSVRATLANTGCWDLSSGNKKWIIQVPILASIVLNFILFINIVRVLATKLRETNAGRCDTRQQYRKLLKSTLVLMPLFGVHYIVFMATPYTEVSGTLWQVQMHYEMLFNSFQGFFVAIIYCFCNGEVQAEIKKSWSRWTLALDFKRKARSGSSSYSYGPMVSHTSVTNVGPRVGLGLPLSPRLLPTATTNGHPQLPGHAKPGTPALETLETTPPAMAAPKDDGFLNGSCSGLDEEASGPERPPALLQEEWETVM
Protocol: Intact cell binding reactions were performed in 96-well plates, and, following incubation, the cells were lysed with 1N NaOH, and the lysate was counted for gamma radiation. For membrane dissociation assays, reactions were assembled in 15 cc tubes, and, at times following membrane addition (t=0), aliquots were withdrawn and filtered through a well of a vacuum filtration 96-well plate, rinsed, and, after washing, the filters were removed and counted for gamma irradiation. […] Curves were fit to the data using a four-parameter sigmoidal dose-response equation.
Pharmacological properties of the ligands were assessed in cells expressing the PTHR1 and the GloSensor™ cAMP reporter. The assays used GP-2.3 cells, derived from HEK293 cells by stable transfection with the hPTHR1 and GloSensor™, as well as SGS-72 cells, which are derived from the human osteosarcoma cell line, Saos-2, in which is endogenously expressed the hPTHR1, by stable transfection with GloSensor™. Binding of representative polypeptides to the PTHR1 was assessed in GP-2.3 cells by radioligand competition methods (FIGS. 1A and 1B, Table 3).
The assays were performed in GP-2.3 cells with the two tracer ^125I-radioligands shown; values are half-maximal inhibitory concentration (pIC50) and corresponding nanomolar value (below) derived from curve fitting ligand dose-response data. Data are means of four experiments.

wild-type PTHR = molecular target: T2, wild-type PTHR (Mus musculus, UniProt P41593); assay: Mouse model of hypercalcemia of malignancy (co-injection with PTHrP(1-36)), blood Ca2+; format: in vivo; conditions: 10-week old female CD1 mice; i.v. co-injection with PTHrP(1-36)-1880 10 nmol/kg; peptide 500 nmol/kg
T2 construct: Wild-type mice were injected with a PTH agonist analog; from tissue; host or cells: whole animal, wild-type mice (C57BL/6J per methods)
T2 sequence (P41593 27-591): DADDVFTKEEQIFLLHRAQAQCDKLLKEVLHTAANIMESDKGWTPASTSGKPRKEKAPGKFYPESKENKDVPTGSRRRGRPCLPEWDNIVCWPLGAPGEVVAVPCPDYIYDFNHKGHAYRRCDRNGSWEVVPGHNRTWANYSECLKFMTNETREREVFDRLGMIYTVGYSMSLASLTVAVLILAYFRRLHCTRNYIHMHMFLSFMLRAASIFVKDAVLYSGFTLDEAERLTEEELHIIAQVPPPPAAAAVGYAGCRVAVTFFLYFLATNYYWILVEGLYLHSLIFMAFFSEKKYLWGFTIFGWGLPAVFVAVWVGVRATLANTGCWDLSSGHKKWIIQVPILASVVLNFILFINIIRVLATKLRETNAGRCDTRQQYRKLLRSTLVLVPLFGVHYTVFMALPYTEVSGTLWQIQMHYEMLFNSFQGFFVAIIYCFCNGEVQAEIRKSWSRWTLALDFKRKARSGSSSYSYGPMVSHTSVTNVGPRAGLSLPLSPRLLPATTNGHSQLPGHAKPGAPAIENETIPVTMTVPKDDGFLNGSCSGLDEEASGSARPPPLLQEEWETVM
Protocol: Mice were injected IV via the tail vein or subcutaneously with ligands in vehicle (0.05% Tween80; 10 mM citrate; 150 mM NaCl; pH 5.0) to give the intended final ligand dose (e.g. 50 nmol/kg body weight). At times immediately before (t=0) and after injection, tail vein blood was collected and analyzed for blood ionized calcium (Ca^2+) measured with a RAPIDLAB 348 analyzer (SIEMENS Healthcare Diagnostic, United Kingdom).
To study antagonism at the wild-type PTHR under conditions of excess PTHrP, as occurs in humans with hypercalcemia of malignancy, we co-injected wild-type mice with PTHrP(1-36) and a test antagonist and measured effects on blood Ca^2+ levels. The results are illustrated in FIG. 13.

CC[C@H](C)[C@H](N)C(=O)N[C@@H](CCC(N)=O)C(=O)N[C@@H](CC(C)C)C(=O)N[C@@H](CCSC)C(=O)N[C@@H](Cc1c[nH]cn1)C(=O)N[C@@H](CCC(N)=O)C(=O)N[C@@H](CCCNC(=N)N)C(=O)N[C@H](Cc1c[nH]c2ccccc12)C(=O)N[C@@H](CCCCN)C(=O)N[C@@H](Cc1c[nH]c2ccccc12)C(=O)N[C@H](C(=O)N[C@@H](CCC(N)=O)C(=O)N[C@@H](CC(=O)O)C(=O)N[C@@H](C)C(=O)N[C@@H](CCCNC(=N)N)C(=O)N[C@@H](CCCNC(=N)N)C(=O)N[C@@H](CCCNC(=N)N)C(=O)N[C@@H](C)C(=O)N[C@@H](Cc1c[nH]c2ccccc12)C(=O)N[C@@H](CC(C)C)C(=O)N[C@@H](Cc1c[nH]cn1)C(=O)N[C@@H](CCCCN)C(=O)N[C@@H](CC(C)C)C(=O)N[C@H](C(=O)N[C@@H](C)C(=O)N[C@@H](CCC(=O)O)C(=O)N[C@H](C(=O)N[C@@H](Cc1c[nH]cn1)C(=O)N[C@H](C(=O)N[C@@H](C)C(=O)N[C@@H](CCC(=O)O)C(=O)N[C@H](C(N)=O)[C@@H](C)CC)[C@@H](C)O)[C@@H](C)CC)[C@@H](C)CC)[C@@H](C)CC [compound 1949, dW12, W23-LA-PTH(5-36)] (H-IQLMHQR[dW]KWIQDARRRAWLHKLIAEIHTAEI-NH2; N-terminus assumed)
apparent PTHR1 affinity compared with dTrp^12-PTH(7-34)-1894 (PTHR1 (hPTHR1); radioligand competition): at least as strong | IC50 (PTHR1 (hPTHR1); tracer ^125I-PTH(1-34), read-out: half-maximal inhibitory concentration, corresponding nanomolar value, tracer ^125I-PTH(1-34)): 22.3 nM | IC50 (PTHR1 (hPTHR1); tracer ^125I-PTHrP(5-36), read-out: half-maximal inhibitory concentration, corresponding nanomolar value, tracer ^125I-PTHrP(5-36)): 17.7 nM | effect on blood Ca^2+ levels (FIG. 13) (wild-type PTHR): significant reduction of blood Ca^2+ levels
